Assay results reported in US10144947B2, “Method for detecting, identifying and enumerating micro-organisms in a porous support dry-impregnated with a dehydrated reaction medium” (BIOMÉRIEUX, priority 2014, dated 2018).
Read-outs that look alike come from different tables or passages of the source.

Experiments:
[1] = system: Proteus mirabilis API 8803099; assay: MIC of ciprofloxacin for the strain tested; assay type: cell-based
[2] = system: Proteus mirabilis API 8803080; assay: MIC of ciprofloxacin for the strain tested; assay type: cell-based; conditions: listed as Ci
[3] = system: Proteus mirabilis API 9406037; assay: MIC of ciprofloxacin for the strain tested; assay type: cell-based; conditions: listed as Ci
[4] = system: Proteus vulgaris API 8803017; assay: MIC of ciprofloxacin for the strain tested; assay type: cell-based; conditions: API8803017
[5] = system: Pseudomonas aeruginosa API 9405061; assay: MIC of ciprofloxacin for the strain tested; assay type: cell-based; conditions: P. aeruginosa API 9405061
[6] = system: Pseudomonas aeruginosa API 7509005; assay: MIC of ciprofloxacin for the strain tested; assay type: cell-based; conditions: P. aeruginosa API 7509005; listed as Ci
[7] = system: Pseudomonas aeruginosa API 9410075; assay: MIC of ciprofloxacin for the strain tested; assay type: cell-based; conditions: P. aeruginosa API 9410075; listed as Ci
[8] = system: Pseudomonas aeruginosa API 9405063; assay: MIC of ciprofloxacin for the strain tested; assay type: cell-based; conditions: P. aeruginosa API 9405063; listed as Ci
[9] = system: Proteus mirabilis API 8803080; assay: Growth on MH2 or ChromID CPS3 with 1.5 mg/l ciprofloxacin, agar medium or impregnated porous support; assay type: cell-based; design: key to growth on MH2 Agar medium + 1.5 mg/l Ci / growth on Impregnation of porous support with MH2 + 1.5 mg/l Ci / growth on ChromID CPS3 Agar medium + 1.5 mg/l Ci / growth on Impregnation of porous support with ChromID CPS3 + 1.5 mg/l Ci: ++: grow; −−: do not grow
Protocol: (§1) To produce the agar media, a liter of water is added to the test specimen of the dry medium, i.e. 38.3 g for ChromID CPS3 and 41.57 g for the Muller Hinton 2 medium. The dry medium is then dissolved with magnetic stirring, brought to the boil then sterilized by autoclaving. […]. The whole thing is then mixed together in a Turbula®. The porous supports are then impregnated with the culture media powders as described above and sterilized by gamma radiation between 10 and 17 kGy.

[10] = system: Proteus mirabilis API 8803099; assay: as above; assay type: cell-based; design: key to growth on MH2 Agar medium + 1.5 mg/l Ci / growth on Impregnation of porous support with MH2 + 1.5 mg/l Ci / growth on ChromID CPS3 Agar medium + 1.5 mg/l Ci / growth on Impregnation of porous support with ChromID CPS3 + 1.5 mg/l Ci: ++: grow; −−: do not grow
Protocol: as §1

[11] = system: Proteus mirabilis API 9406037; assay: as above; assay type: cell-based; design: key to growth on MH2 Agar medium + 1.5 mg/l Ci / growth on Impregnation of porous support with MH2 + 1.5 mg/l Ci / growth on ChromID CPS3 Agar medium + 1.5 mg/l Ci / growth on Impregnation of porous support with ChromID CPS3 + 1.5 mg/l Ci: ++: grow; −−: do not grow
Protocol: as §1

[12] = system: Proteus vulgaris API 8803017; assay: as above; assay type: cell-based; design: key to growth on MH2 Agar medium + 1.5 mg/l Ci / growth on Impregnation of porous support with MH2 + 1.5 mg/l Ci / growth on ChromID CPS3 Agar medium + 1.5 mg/l Ci / growth on Impregnation of porous support with ChromID CPS3 + 1.5 mg/l Ci: ++: grow; −−: do not grow
Protocol: as §1

[13] = system: Pseudomonas aeruginosa API 7509005; assay: as above; assay type: cell-based; design: key to growth on MH2 Agar medium + 1.5 mg/l Ci / growth on Impregnation of porous support with MH2 + 1.5 mg/l Ci / growth on ChromID CPS3 Agar medium + 1.5 mg/l Ci / growth on Impregnation of porous support with ChromID CPS3 + 1.5 mg/l Ci: ++: grow; −−: do not grow
Protocol: as §1

[14] = system: Pseudomonas aeruginosa API 9405061; assay: as above; assay type: cell-based; design: key to growth on MH2 Agar medium + 1.5 mg/l Ci / growth on Impregnation of porous support with MH2 + 1.5 mg/l Ci / growth on ChromID CPS3 Agar medium + 1.5 mg/l Ci / growth on Impregnation of porous support with ChromID CPS3 + 1.5 mg/l Ci: ++: grow; −−: do not grow
Protocol: as §1

[15] = system: Pseudomonas aeruginosa API 9405063; assay: as above; assay type: cell-based; design: key to growth on MH2 Agar medium + 1.5 mg/l Ci / growth on Impregnation of porous support with MH2 + 1.5 mg/l Ci / growth on ChromID CPS3 Agar medium + 1.5 mg/l Ci / growth on Impregnation of porous support with ChromID CPS3 + 1.5 mg/l Ci: ++: grow; −−: do not grow
Protocol: as §1

[16] = system: Pseudomonas aeruginosa API 9410075; assay: as above; assay type: cell-based; design: key to growth on MH2 Agar medium + 1.5 mg/l Ci / growth on Impregnation of porous support with MH2 + 1.5 mg/l Ci / growth on ChromID CPS3 Agar medium + 1.5 mg/l Ci / growth on Impregnation of porous support with ChromID CPS3 + 1.5 mg/l Ci: ++: grow; −−: do not grow
Protocol: as §1

E. coli ATCC 25922 [17] = assay: MIC of imipenem for the strain used; assay type: cell-based; conditions: Escherichia coli, ATCC25922, as stated in the conclusion
[18] = system: Pseudomonas aeruginosa ATCC 27853; assay: MIC of imipenem for the strain used; assay type: cell-based; conditions: ATCC27853, Pseudomonas aeruginosa ATCC 27853, as stated in the conclusion
E. coli ATCC 25922 [19] = assay: Growth (colony count) on ChromID CPS3 with 1 mg/l imipenem, agar medium or impregnated porous support; assay type: cell-based, Escherichia coli
Protocol: (§2) To produce the agar media, a liter of water is added to the test specimen of the dry medium, i.e. 38.3 g for ChromID CPS3. The dry medium is then dissolved with stirring, brought to the boil then sterilized by autoclaving. After cooling the agar medium to 55° C., the imipenem sterilized by filtration is added at a concentration of 1 mg/l. To carry out impregnation according to the present invention of the dry medium Chrom ID CPS3, a test specimen of the dry medium corresponding to the manufacture of one liter of medium is taken, i.e. 26 g, to which test specimen xanthan (20 g) and imipenem […] are added. All the constituents are then mixed together in a Turbula®. The porous supports are then impregnated by the culture media powder produced as described above and sterilized by gamma radiation between 10 and 17 kGy.

[20] = system: Pseudomonas aeruginosa ATCC 27853; assay: as above; assay type: cell-based; conditions: for CFU/ml, ChromID CPS3 with 1 mg/l imipenem: starting concentration 10^3 CFU/ml; for CFU, ChromID CPS3 with 1 mg/l imipenem: starting concentration 10^5 CFU/ml
Protocol: as §2

[21] = ChromID CPS3 agar medium, 1.5 mg/l ciprofloxacin
[22] = MH2 agar medium, 1.5 mg/l ciprofloxacin
[23] = MH2 and ChromID CPS3, agar and porous support, 1.5 mg/l ciprofloxacin
[24] = porous support impregnated with ChromID CPS3, 1.5 mg/l ciprofloxacin
[25] = porous support impregnated with MH2, 1.5 mg/l ciprofloxacin
[26] = all the agar or impregnated media, ciprofloxacin 1.5 g/1 [sic]
[27] = porous support according to the invention

O=C(O)c1cn(C2CC2)c2cc(N3CCNCC3)c(F)cc2c1=O [ciprofloxacin, Ciprofloxacin]
less than 1.5 mg/l: MIC [1] | MIC [5]
0.032 µg/mL: MIC ([1]; listed as Ci)
>32 µg/mL: MIC [7]
< 1.5 µg/mL: MIC [4]
0.25 µg/mL: MIC ([5]; listed as Ci) | MIC [6]
do not grow: growth on agar media and impregnated porous supports with ciprofloxacin (in words) [9, 23] | growth on agar media and impregnated porous supports with ciprofloxacin (in words) [10, 23] | growth on agar media and impregnated porous supports with ciprofloxacin (in words) [12, 23] | growth on agar media and impregnated porous supports with ciprofloxacin (in words) [13, 23] | growth on agar media and impregnated porous supports with ciprofloxacin (in words) [14, 23]
6 to 8 µg/mL: MIC [8]
−−: growth on ChromID CPS3 Agar medium + 1.5 mg/l Ci [9, 21] | growth on MH2 Agar medium + 1.5 mg/l Ci [9, 22] | growth on Impregnation of porous support with ChromID CPS3 + 1.5 mg/l Ci [9, 24] | growth on Impregnation of porous support with MH2 + 1.5 mg/l Ci [9, 25] | growth on ChromID CPS3 Agar medium + 1.5 mg/l Ci [10, 21] | growth on MH2 Agar medium + 1.5 mg/l Ci [10, 22] | growth on Impregnation of porous support with ChromID CPS3 + 1.5 mg/l Ci [10, 24] | growth on Impregnation of porous support with MH2 + 1.5 mg/l Ci [10, 25] | growth on ChromID CPS3 Agar medium + 1.5 mg/l Ci [12, 21] | growth on MH2 Agar medium + 1.5 mg/l Ci [12, 22] | growth on Impregnation of porous support with ChromID CPS3 + 1.5 mg/l Ci [12, 24] | growth on Impregnation of porous support with MH2 + 1.5 mg/l Ci [12, 25] | growth on ChromID CPS3 Agar medium + 1.5 mg/l Ci [13, 21] | growth on MH2 Agar medium + 1.5 mg/l Ci [13, 22] | growth on Impregnation of porous support with ChromID CPS3 + 1.5 mg/l Ci [13, 24] | growth on Impregnation of porous support with MH2 + 1.5 mg/l Ci [13, 25] | growth on ChromID CPS3 Agar medium + 1.5 mg/l Ci [14, 21] | growth on MH2 Agar medium + 1.5 mg/l Ci [14, 22] | growth on Impregnation of porous support with ChromID CPS3 + 1.5 mg/l Ci [14, 24] | growth on Impregnation of porous support with MH2 + 1.5 mg/l Ci [14, 25]
++: growth on ChromID CPS3 Agar medium + 1.5 mg/l Ci [11, 21] | growth on MH2 Agar medium + 1.5 mg/l Ci [11, 22] | growth on Impregnation of porous support with ChromID CPS3 + 1.5 mg/l Ci [11, 24] | growth on Impregnation of porous support with MH2 + 1.5 mg/l Ci [11, 25] | growth on ChromID CPS3 Agar medium + 1.5 mg/l Ci [15, 21] | growth on MH2 Agar medium + 1.5 mg/l Ci [15, 22] | growth on Impregnation of porous support with ChromID CPS3 + 1.5 mg/l Ci [15, 24] | growth on Impregnation of porous support with MH2 + 1.5 mg/l Ci [15, 25] | growth on ChromID CPS3 Agar medium + 1.5 mg/l Ci [16, 21] | growth on MH2 Agar medium + 1.5 mg/l Ci [16, 22] | growth on Impregnation of porous support with ChromID CPS3 + 1.5 mg/l Ci [16, 24] | growth on Impregnation of porous support with MH2 + 1.5 mg/l Ci [16, 25]
0.38 to 0.5 µg/mL: MIC [2]
8 to 12 µg/mL: MIC [3]
grow: growth on agar media and impregnated porous supports with ciprofloxacin (in words) [11, 26] | growth on agar media and impregnated porous supports with ciprofloxacin (in words) [15, 26] | growth on agar media and impregnated porous supports with ciprofloxacin (in words) [16, 26]

C[C@@H](O)[C@H]1C(=O)N2C(C(=O)O)=C(SCCN=CN)C[C@H]12 [imipenem]
677 CFU/ml: CFU/ml, ChromID CPS3 with 1 mg/l imipenem ([20]; ChromID CPS3 agar)
0.12 µg/mL: MIC (E. coli ATCC 25922 [17])
≥300 colonies: CFU, ChromID CPS3 with 1 mg/l imipenem ([20]; ChromID CPS3 agar) | CFU, ChromID CPS3 with 1 mg/l imipenem [20, 27]
453 CFU/ml: CFU/ml, ChromID CPS3 with 1 mg/l imipenem [20, 27]
2 µg/mL: MIC [18]
0 CFU/ml: CFU/ml, ChromID CPS3 with 1 mg/l imipenem (E. coli ATCC 25922 [19]; ChromID CPS3 agar, starting concentration 10^3 CFU/ml) | CFU/ml, ChromID CPS3 with 1 mg/l imipenem (E. coli ATCC 25922 [19]; ChromID CPS3 agar, starting concentration 10^5 CFU/ml) | CFU/ml, ChromID CPS3 with 1 mg/l imipenem (E. coli ATCC 25922 [19]; porous support according to the invention, starting concentration 10^3 CFU/ml) | CFU/ml, ChromID CPS3 with 1 mg/l imipenem (E. coli ATCC 25922 [19]; porous support according to the invention, starting concentration 10^5 CFU/ml)
